{
  "source": "patent US7781393B2",
  "about": "“Methods for inhibiting tumor cell growth” (Dana-Farber Cancer Institute, Inc., priority 2004, dated 2010)",
  "format_in_all_cases": "cell-based, human",
  "key": {"MM cell lines": {"tested_on": "MM cell lines", "experiment": "MTT colorimetric survival assay, serum-stimulated MM cell lines", "method": "(§1) Cell survival of IGF-1R inhibitor-treated cells was examined using the 3-(4,5-Dimethylthiazol-2-yl)-2,5-Diphenyltetrazolium Bromide (MTT) calorimetric assay. […] At the end of each treatment, cells were incubated with 1 mg/ml MTT for 4 hours at 37° C.; a mixture of isopropanol and 1N HCl (23:2, v/v) was then added under vigorous pipetting to dissolve the formazan crystals. Dye absorbance (A) in viable cells was measured at 570 nm, with 630 nm as a reference wavelength. Cell survival was estimated as a percentage of the value of untreated controls. All experiments were repeated at least three times, and each experimental condition was repeated at least in quadruplicate wells in each experiment."}, "[1]": {"tested_on": "PC-3 prostate cancer cells", "experiment": "MTT assay of responsiveness to IL-6", "conditions": "co-treatment 500 nM, serum, 72 hours", "method": "as §1"}, "INA-6 MM cells": {"tested_on": "INA-6 MM cells", "experiment": "MTT assay of responsiveness to IL-6", "conditions": "co-treatment 500 nM, serum, 72 hours", "method": "as §1"}, "[2]": {"tested_on": "SW579 papillary thyroid carcinoma cells", "experiment": "VEGF ELISA, IGF-1-stimulated thyroid carcinoma cells", "conditions": "750 nM; IGF-1 200 ng/mL in serum-free medium", "method": "(§2) Flow cytometric analyses for IGF-1R, and IGF-2R were performed as previously described on a EPICS-XL-MCL flow cytometer (Beckman Coulter). Previously described protocols were applied for immunoblotting analyses; TRAP telomerase activity assay; 20S proteasome chymotryptic activity assay; DNA binding activity ELISAs for quantitative assessments of NF-κB and HIF-1a transcriptional activities. VEGF and IGF-1 ELISAs were performed according to manufacturer's instructions (R&D Systems, Minneapolis, Minn.)."}, "[3]": {"tested_on": "VEGF secretion by myeloma cells and BMSCs", "experiment": "VEGF ELISA, MM cells and BMSCs alone and in co-culture", "conditions": "500 nM for 24 hrs", "method": "as §2"}, "HIF-1α": {"tested_on": "HIF-1α", "experiment": "HIF-1α DNA binding activity ELISA", "method": "Flow cytometric analyses for IGF-1R, and IGF-2R were performed as previously described on a EPICS-XL-MCL flow cytometer (Beckman Coulter). Previously described protocols were applied for immunoblotting analyses; TRAP telomerase activity assay; 20S proteasome chymotryptic activity assay; DNA binding activity ELISAs for quantitative assessments of NF-κB and HIF-1a transcriptional activities. VEGF and IGF-1 ELISAs were performed according to manufacturer's instructions (R&D Systems, Minneapolis, Minn.). 20S proteasome chymotryptic activity assay was performed as described [Shringarpure 2003]. The transcriptional activity of DNA binding activity of NF-κB and HIF-1α was measured as previously reported. Libermann T A, et al., . Proc Natl Acad Sci USA; 2002 99: 14374-14379; Mitsiades N. et al., 2002, 99: 4079-4086; Mitsiades N. et al., 2002; Blood 99: 4525-4530 and Mitsiades N., et al 2003 Blood; 101: 2377-2380."}, "MM-1S cells": {"tested_on": "MM-1S cells", "experiment": "In vitro sensitization of MM-1S cells to anti-cancer drugs", "conditions": "ADW-742 750 nM or α-IR3 2 μg/ml for final 24 hours", "method": "Cells were cultured in the presence of 10% FBS, and results are expressed as mean ±SD of 3 independent experiments.\nas §1"}, "CD138+ MM cells": {"tested_on": "CD138+ MM cells", "experiment": "Flow cytometric analysis of unpurified bone marrow mononuclear cells", "conditions": "500 nM, 72 hours, 20% serum; BM stromal cells not suppressed"}},
  "data": [
    {"compound": "Nc1ncnc2c1c(-c1cccc(OCc3ccccc3)c1)cn2[C@H]1C[C@H](CN2CCCC2)C1", "note": "[ADW-742, trans-5-(3-benzyloxy-phenyl)-7-(3-pyrrolidin-1-ylmethyl-cyclobutyl)-7H-pyrrolo[2,3-d]pyrimidin-4-ylamine]", "values": [
      {"measurement": "IC50", "setting": "MM cell lines; Homo sapiens, values generally in this range, 0-10 μM for 72 hours, read-out: IC50, serum-induced cell growth of MM cell lines", "value": "100 to 500", "unit": "nM"},
      {"measurement": "activity against MM cell lines with known resistance to conventional or investigational anti-cancer agents", "setting": "MM cell lines; also primary tumor cells from MM patients with multi-drug resistant disease", "value": "active"},
      {"measurement": "responsiveness to IL-6", "setting": "[1]", "value": "abrogated"},
      {"measurement": "responsiveness to IL-6", "setting": "INA-6 MM cells", "value": "abrogated"},
      {"measurement": "IGF-1-induced secretion of VEGF", "setting": "[2]", "value": "suppresses"},
      {"measurement": "constitutive and co-culture-induced secretion of VEGF", "setting": "[3]", "value": "suppresses"},
      {"measurement": "IGF-1-induced HIF-1α activity", "setting": "HIF-1α", "value": "suppress"},
      {"measurement": "sensitivity of MM-1S cells to dexamethasone", "setting": "MM-1S cells; dexamethasone 0.1 μM 72 hrs", "value": "enhances the sensitivity"},
      {"measurement": "sensitivity of MM-1S cells to doxorubicin", "setting": "MM-1S cells; doxorubicin 50 ng/mL 48 hrs", "value": "enhance the sensitivity"},
      {"measurement": "sensitivity of MM-1S cells to melphalan", "setting": "MM-1S cells; melphalan 1 μM 48 hrs", "value": "enhance the sensitivity"},
      {"measurement": "CD138+ population of malignant cells", "setting": "CD138+ MM cells", "value": "significant suppression"}
    ]}
  ]
}
